Patent publication US8247448B2, “Butenoic acid derivatives, processes for the preparation thereof, pharmaceutical compositions comprising them, and use for the treatment of dyslipidaemia, atherosclerosis and diabetes” (Merck Patent GmbH, priority 2003, dated 2012)

Legend:
Assay type in all cases: cell-based
[1] = system: chimeric protein PPARγ-Gal4; test: PPAR activation, Gal4 chimera luciferase reporter gene test in co-transfected CV-1 cells; conditions: 50 μM, CV-1 cells (monkey kidney cells), 18 hours contact
Method: (§1) The measurement of the PPAR activation was performed according to a technique described by Lehmann et al. (J. Biol. Chem., 270, (1995), 12953-12956).
(§2) CV-1 cells (monkey kidney cells) are co-transfected with an expression vector for the chimeric proteins PPARα-Gal4 or PPARγ-Gal4 and with a “reporter” plasmid that allows the expression of the luciferase gene placed under the control of a promoter containing Gal4 response elements.
(§3) The cells are plated into 96-well microplates and co-transfected using a commercial reagent with the reporter plasmid (pG5-tk-pGL3) and the expression vector for the chimeric protein ([…]). After incubating for 4 hours, whole culture medium (comprising 10% foetal calf serum) is added to the wells. After 24 hours, the medium is removed and replaced with whole medium comprising the test products (50 μM final). The products are left in contact with the cells for 18 hours. The cells are then lysed and the luciferase activity is measured using a luminometer. A PPAR activation factor can then be calculated by means of activation of the expression of the reporter gene induced by the product (relative to the control cells that have not received any product).

[2] = target: T1, chimeric protein PPARα-Gal4 (Homo sapiens, UniProt Q07869); test: as above; conditions: 50 μM, CV-1 cells (monkey kidney cells), 18 hours contact
T1 construct: Gal4 (fusion partner); expressed in transfected cells; host or cells: CV-1 cells (monkey kidney cells)
T1 sequence (Q07869 239-466 limits assumed): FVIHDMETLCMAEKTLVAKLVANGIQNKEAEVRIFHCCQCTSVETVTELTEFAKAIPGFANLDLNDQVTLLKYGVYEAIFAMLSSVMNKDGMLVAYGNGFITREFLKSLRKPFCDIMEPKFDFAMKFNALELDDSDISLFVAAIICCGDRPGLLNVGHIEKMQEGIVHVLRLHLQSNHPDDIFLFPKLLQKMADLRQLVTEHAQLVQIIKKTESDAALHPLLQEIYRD
Method: as §1, §2, §3

Gal4 alone = test: Control: luciferase reporter test with vector expressing Gal4 alone (no PPAR ligand binding domain); conditions: CV-1 cells; in the presence of the product
Method: CV-1 cells (monkey kidney cells) are co-transfected with an expression vector for the chimeric proteins PPARα-Gal4 or PPARγ-Gal4 and with a “reporter” plasmid that allows the expression of the luciferase gene placed under the control of a promoter containing Gal4 response elements. The cells are plated into 96-well microplates and co-transfected using a commercial reagent with the reporter plasmid (pG5-tk-pGL3) and the expression vector for the chimeric protein ([…]). After incubating for 4 hours, whole culture medium (comprising 10% foetal calf serum) is added to the wells. After 24 hours, the medium is removed and replaced with whole medium comprising the test products (50 μM final). The products are left in contact with the cells for 18 hours. The cells are then lysed and the luciferase activity is measured using a luminometer. A PPAR activation factor can then be calculated by means of activation of the expression of the reporter gene induced by the product (relative to the control cells that have not received any product). [drawing 12] at a concentration of 50 μM, activates the chimeric protein PPARα-Gal-4 by a factor of 2.3, and the chimeric protein […] by a factor of 6.4. In the absence of the binding domain for the PPAR α or γ ligand (vector expressing Gal4 alone), the luciferase activity measured in the presence of this product is zero.

## CCOC(=O)C(/C=C/c1ccccc1)Oc1ccccc1 (stereo not drawn)
[1]
  activation factor of the chimeric protein PPARα-Gal4 (second mention; reporter gene expression relative to control cells): 6.4
[2]
  activation factor of the chimeric protein PPARα-Gal-4 (reporter gene expression relative to control cells): 2.3
Gal4 alone
  luciferase activity in the absence of the binding domain for the PPAR α or γ ligand (vector expressing Gal4 alone): zero
